Measured values from patent US12226412B2, “Heteroaryl-ketone fused azadecalin glucocorticoid receptor modulators” (Corcept Therapeutics, Inc., priority 2012, dated 2025).

Tests used:
[1] = tested on: induction of TAT by dexamethasone in HepG2 cells; experiment: HepG2 tyrosine aminotransferase (TAT) assay; type: cell-based, human; settings: HepG2 cells, challenge of 100 nM dexamethasone; Ki from IC50 by Cheng and Prusoff equation
human recombinant GR = target: T1, human recombinant GR (Homo sapiens, UniProt P04150); experiment: Human glucocorticoid receptor (GR) fluorescence polarisation (FP) binding assay; settings: human recombinant GR, fluorescence polarisation binding assay; read-out: GR binding
T1 construct: purchased PanVera P2812
T1 sequence (P04150 1-777): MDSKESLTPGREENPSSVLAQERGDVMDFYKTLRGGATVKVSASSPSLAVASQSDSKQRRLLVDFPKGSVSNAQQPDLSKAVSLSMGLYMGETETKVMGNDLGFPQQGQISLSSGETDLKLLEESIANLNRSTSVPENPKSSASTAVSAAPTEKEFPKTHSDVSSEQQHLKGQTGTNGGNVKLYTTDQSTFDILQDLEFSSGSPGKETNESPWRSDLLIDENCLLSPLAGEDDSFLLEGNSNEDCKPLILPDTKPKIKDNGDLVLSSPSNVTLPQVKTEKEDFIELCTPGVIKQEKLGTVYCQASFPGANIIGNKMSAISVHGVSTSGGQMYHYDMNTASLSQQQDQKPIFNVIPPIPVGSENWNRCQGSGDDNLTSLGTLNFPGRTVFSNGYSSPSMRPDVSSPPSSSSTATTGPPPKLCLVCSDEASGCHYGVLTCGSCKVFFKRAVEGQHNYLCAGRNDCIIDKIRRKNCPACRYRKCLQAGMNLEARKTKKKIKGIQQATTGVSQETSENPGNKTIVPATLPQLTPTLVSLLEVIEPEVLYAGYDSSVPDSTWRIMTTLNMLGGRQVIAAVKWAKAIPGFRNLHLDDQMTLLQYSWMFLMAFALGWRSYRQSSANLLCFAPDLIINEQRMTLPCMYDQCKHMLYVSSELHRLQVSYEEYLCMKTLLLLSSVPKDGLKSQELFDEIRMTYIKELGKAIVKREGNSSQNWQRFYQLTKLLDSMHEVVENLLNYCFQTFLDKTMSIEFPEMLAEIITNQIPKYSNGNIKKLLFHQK
Outline: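 Competition fluorescence polarisation: 0.5 nM GS Red labelled glucocorticoid and 1 nM recombinant human GR with 8-point half-log compound series, 1% DMSO, 4 h room temperature, potassium phosphate pH 7.4 buffer with molybdate, EDTA, DTT. Affinity derived from the drop in polarisation, normalised to blank wells.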

## CCCn1ncc(S(=O)(=O)N2CCC3=Cc4c(cnn4-c4ccc(F)cc4)C[C@]3(C(=O)c3cc(C(F)(F)F)ccn3)C2)n1 (single isomer, unassigned) [Example 11DC]
[1]
  Ki: < 20 nM
Human recombinant GR
  Ki: 0.5 to 1 nM

## CCCn1cc(S(=O)(=O)N2CCC3=Cc4c(cnn4-c4ccc(F)cc4)C[C@]3(C(=O)c3cc(C(F)(F)F)ccn3)C2)cn1 [Example 11CX, (R)-(1-(4-fluorophenyl)-6-((1-propyl-1H-pyrazol-4-yl)sulfonyl)-4,4a,5,6,7,8-hexahydro-1H-pyrazolo[3,4-g]isoquinolin-4a-yl)(4-(trifluoromethyl)pyridin-2-yl)methanone]
[1]
  Ki: < 20 nM
Human recombinant GR
  Ki: < 0.5 nM

## Cc1nnc(C(=O)[C@]23Cc4cnn(-c5ccc(F)cc5)c4C=C2CCN(S(=O)(=O)c2ccc(C(F)(F)F)cc2)C3)o1 [Example 1D, (R)-(1-(4-fluorophenyl)-6-((4-(trifluoromethyl)phenyl)sulfonyl)-4,4a,5,6,7,8-hexahydro-1H-pyrazolo[3,4-g]isoquinolin-4a-yl)(5-methyl-1,3,4-oxadiazol-2-yl)methanone]
[1]
  Ki: ≥ 100 nM
Human recombinant GR
  Ki: > 1 nM

## COc1ccnc(C(=O)[C@]23Cc4cnn(-c5ccc(F)cc5)c4C=C2CCN(S(=O)(=O)c2cc(F)cc(F)c2)C3)c1 [Example 1K, (R)-(6-((3,5-difluorophenyl)sulfonyl)-1-(4-fluorophenyl)-4,4a,5,6,7,8-hexahydro-1H-pyrazolo[3,4-g]isoquinolin-4a-yl)(4-methoxypyridin-2-yl)methanone]
[1]
  Ki: < 20 nM
Human recombinant GR
  Ki: < 0.5 nM

## CCc1ccc(S(=O)(=O)N2CCC3=Cc4c(cnn4-c4ccc(F)cc4)C[C@]3(C(=O)c3ccccn3)C2)cc1 [Example 2D, (R)-(6-((4-ethylphenyl)sulfonyl)-1-(4-fluorophenyl)-4,4a,5,6,7,8-hexahydro-1H-pyrazolo[3,4-g]isoquinolin-4a-yl)(pyridin-2-yl)methanone]
[1]
  Ki: < 20 nM
Human recombinant GR
  Ki: < 0.5 nM

## Cc1n[nH]c(C)c1S(=O)(=O)N1CCC2=Cc3c(cnn3-c3ccc(F)cc3)C[C@]2(C(=O)c2cc(C(F)(F)F)ccn2)C1 [Example 2V, (R)-(6-((3,5-dimethyl-1H-pyrazol-4-yl)sulfonyl)-1-(4-fluorophenyl)-4,4a,5,6,7,8-hexahydro-1H-pyrazolo[3,4-g]isoquinolin-4a-yl)(4-(trifluoromethyl)pyridin-2-yl)methanone]
[1]
  Ki: 20 to 100 nM
Human recombinant GR
  Ki: > 1 nM

## O=C(c1ccccn1)[C@]12Cc3cnn(-c4ccccc4)c3C=C1CCN(S(=O)(=O)c1cccc(C(F)(F)F)c1)C2 [Example 11AZ, (R)-(1-phenyl-6-((3-(trifluoromethyl)phenyl)sulfonyl)-4,4a,5,6,7,8-hexahydro-1H-pyrazolo[3,4-g]isoquinolin-4a-yl)(pyridin-2-yl)methanone]
[1]
  Ki: 20 to 100 nM
Human recombinant GR
  Ki: < 0.5 nM

## Cn1ncc(S(=O)(=O)N2CCC3=Cc4c(cnn4-c4ccc(F)cc4)C[C@]3(C(=O)c3cscn3)C2)n1 (single isomer, unassigned) [Example 11DA]
[1]
  Ki: < 20 nM
Human recombinant GR
  Ki: < 0.5 nM

## Cc1ccnc(C(=O)[C@]23Cc4cnn(-c5ccc(F)cc5)c4C=C2CCN(S(=O)(=O)c2cc(F)cc(F)c2)C3)c1 [Example 11W, (R)-(6-((3,5-difluorophenyl)sulfonyl)-1-(4-fluorophenyl)-4,4a,5,6,7,8-hexahydro-1H-pyrazolo[3,4-g]isoquinolin-4a-yl)(4-methylpyridin-2-yl)methanone]
[1]
  Ki: < 20 nM
Human recombinant GR
  Ki: < 0.5 nM

## Cc1ncc(S(=O)(=O)N2CCC3=Cc4c(cnn4-c4ccc(F)cc4)C[C@]3(C(=O)c3cc(C(F)(F)F)ccn3)C2)n1C [Example 11BW, (R)-(6-((1,2-dimethyl-1H-imidazol-5-yl)sulfonyl)-1-(4-fluorophenyl)-4,4a,5,6,7,8-hexahydro-1H-pyrazolo[3,4-g]isoquinolin-4a-yl)(4-(trifluoromethyl)pyridin-2-yl)methanone]
[1]
  Ki: 20 to 100 nM
Human recombinant GR
  Ki: > 1 nM
